Source: patent US20140329776A1, “Mitochondria-Targeted Antioxidants for Treatment of Age-Related Brain Disorders” (MITOTECH S.A., priority 2011, published 2014)

Tests used:
Assay type in all cases: in vivo, rat
[1] = test system: chronically alcoholised rats; assay: elevated plus maze test of chronically alcoholised rats; conditions: SkQ1 250 nM solution orally every two days for 20 days, vs Negative Control
Description: FIG. 10 is a graphic representation showing behavior parameters in the elevated plus-maze test of chronically alcoholised rats in % to intact control. (*−p<0.05; ** −p<0.005 to negative control; #—p<0.05, ##—p<0.01, to intact control);
(§1) Male albino rats had free access to a 15% ethanol solution, as well as to food and water. After 6 months of alcoholisation, animals with average consumption more than 11 ml of 15% ethanol solution were divided into two even groups and subjected to the following treatment. The Negative Control group (n=16) (chronically alcoholised rats) were orally administered 1 ml per kg of isotonic 0.9% NaCl solution every two days for 20 days during alcohol deprivation. The SkQ1 group (n=17) (chronically alcoholised rats) were orally administered 1 ml per kg of SkQ1 250 nM solution every two days for 20 days during alcohol deprivation. The Intact Control group (n=10) (animals had no previous contact with ethanol) were orally administered 1 ml per kg of normal physiological solution every two days for 20 days.
After this course of drug administration, the effect on behavioral parameters was observed using the open field test, the elevated plus maze test, and the Porsolt forced swimming test.

Wistar rats [2] = assay: acoustical startle reflex, pre-impulse inhibition in offspring of rats with hyperhomocysteinemia; conditions: pups day 45
Text: FIG. 13 is a graphic representation showing the inhibition of startle reaction to loud stimulus by pre-impulse in rats, where the histogram bars indicate the mean level of startle reaction after pre-stimulus as % to that of control group of rats (without hyperhomocisteinemia). l-m corresponds to group of rats treated with high L-methionine diet, and skq+lm corresponds to group of rats treated with high L-methionine diet and SkQ1.
FIG. 14 is a graphic representation showing habituation of rats to double acoustic stimulus in normal conditions, under hyperhomocisteinemia and under hyperhomocisteinemia treated with SkQ1, where motor reaction to the double stimulus and P values for different pairs of groups is indicated.
An experiment was performed on 161 female Wistar rats (n=12) with body weight 200 g-250 g and their offspring (n=149) from 0 to 1.5 months old. All animals were SPF-category and were housed under the standard conditions according to GLP-regulations (controlled microbiological conditions, light-dark cycle 12/12 hours, ventilation rate 10-12 V/h, room temperature 22+2° C., with maximum change 1° C. per day, humidity 30-70%). Rats were housed in individual cages with free access to food and water.
Each female rat was held with 3 male rats for one night. First day of the pregnancy was considered to be the day when spermatozoon were found in a vaginal smear. […]

Wistar rats [3] = assay: open field test 4 hours after ethanol narcosis; conditions: SkQ1 250 nM orally after ethanol narcosis; vs negative control, p<0.05
Description: FIG. 5 is a schematic representation of the behavior parameters in the open field test 4 hours after ethanol narcosis of all groups in % to intact control. (*−p<0.05 for SKQ-1 250 nM compared to negative control);
In these experiments, 6 groups of experimental animals (Wistar rats) were used. (1) The Intact Control group (n=12), had no ethanol narcosis, and were orally administered a normal isotonic 0.9% NaCl solution; (2) the Negative Control group (n=12) was orally administered a normal physiological solution after ethanol narcosis; (3) The SkQ1 50 nM control group (n=12) was orally administered SkQ1 in a concentration 50 nM after ethanol narcosis; (4) The SkQ1 250 nM control group (n=12) was orally administered SkQ1 in a concentration of 250 nM after ethanol narcosis; (5) The SkQ1 1250 nM control group (n=12) was orally administered SkQ1 in a concentration of 1250 nM after ethanol narcosis; (6) the SkQ1 1250 nM intr control group (n=13) was intraperitoneally administered SkQ1 in a concentration of 1250 nM after ethanol narcosis.
In the Negative Control group ethanol intoxication caused a decrease of locomotor activity compared to Intact Control group: decreased track length (p<0.05), movement time (p<0.05), mean speed (p<0.05) and increased immobilization time (p<0.05) (FIG. 4). […]

[4] = test system: chronically alcoholised rats; assay: consumption of 15% ethanol solution after deprivation; body weight
Description: FIG. 12 is a graphic representation showing the consumption of 15% ethanol solution after deprivation in ml (*−p<0.01 on 1st day of alcoholisation SKQ-1 to negative control; #—p<0,05 for average ethanol consumption for 1-36 days SKQ-1 to negative control).
as §1
After behavioral testing, ethanol consumption of 15% solution was measured for 45 days. The level of ethanol consumption during first day in the SkQ1 group was lower (p<0.01) than in the Negative Control group. The decreased ethanol consumption during first day indicates lower level of ethanol craving after SkQ1 administration. […]

CC1=C(C)C(=O)C(CCCCCCCCCC[P+](c2ccccc2)(c2ccccc2)c2ccccc2)=CC1=O [SkQ1, plastoquinonyl decyltriphenyl-phosphonium]
number of looking out from closed arms [1]: increased | rearing ([1]; p<0.005): increased | movement time in central zone ([1]; p<0.05): increased | track length in closed arms ([1]; p<0.05): increased | parameters of pre-impulse inhibition of the progeny (Wistar rats [2]; SkQ1 250 nM/kg orally to mother rats once per 2 d during lactation): normalized | non stable and very high reflex reaction on sound stimuli (effect of hyperhomocisteinemia) (Wistar rats [2]; SkQ1-treated group): significantly reduced | immobilization time (Wistar rats [3]): decreasing | track length (Wistar rats [3]): increasing | average ethanol consumption during the next month, lower than Negative Control ([4]; p<0.05): ~2 × | level of ethanol consumption during first day ([4]; vs Negative Control, p<0.01): lower
